{"source": "patent US20180072997A1", "about": "“INHIBITORS OF HUMAN IMMUNODEFICIENCY VIRUS REPLICATION” (ViiV HEATHCARE UK (NO.5) LIMITED, priority 2015, published 2018)"}
{"test_system": "recombinant NL4-3 virus (Renilla luciferase in nef) in MT-2 cells", "experiment": "whole plant or invertebrate", "format": "cell-based, HIV", "conditions": "Renilla, NL43, MT-2 cells infected for 4-5 days with recombinant NL4-3 Renilla luciferase virus; luciferase activity", "method_in_brief": "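MT-2 cells infected for 4-5 days with NL4-3 reporter virus (Renilla luciferase replacing part of nef, produced by transfection of 293T cells) in the presence of serial compound dilutions. Antiviral activity quantified by luciferase activity read with a live-cell substrate.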", "units": {"EC50": "µM"}}
{"smiles": "COc1ccc(N(C)C(=O)[C@H](Cc2ccccc2)NC(=O)c2cc(C(=O)N[C@@H](Cc3ccccc3)C(=O)N(C)c3ccc(OC)cc3)[nH]n2)cc1", "note": "[Example 57]", "EC50": 1.58}
{"smiles": "COc1ccc(N(C)C(=O)[C@H](Cc2ccccc2)NC(=O)[C@@H]2CC[C@H](C(=O)N[C@@H](Cc3ccccc3)C(=O)N(C)c3ccc(OC)cc3)C2)cc1", "note": "[Example 52]", "EC50": 1.14}
{"smiles": "C=CCN(C(=O)[C@H](Cc1cc(F)cc(F)c1)NC(=O)NS(=O)(=O)N[C@@H](Cc1cc(F)cc(F)c1)C(=O)N(CC=C)c1ccc(OC)cc1)c1ccc(OC)cc1", "note": "[Example 120]", "EC50": 0.26}
{"smiles": "CN(C(=O)[C@H](Cc1cc(F)cc(F)c1)NC(=O)NS(=O)(=O)N[C@@H](Cc1cc(F)cc(F)c1)C(=O)N(C)c1ccccc1)c1ccccc1", "note": "[Example 86]", "EC50": 0.09}
{"smiles": "CN(C(=O)[C@H](Cc1cc(F)cc(F)c1)NC(=O)NS(=O)(=O)N[C@@H](Cc1cc(F)cc(F)c1)C(=O)N(C)c1cnc2scnc2c1)c1cnc2scnc2c1", "note": "[Example 226]", "EC50": 8.92}
{"smiles": "Cc1ccc(N(C)C(=O)[C@H](Cc2cc(F)cc(F)c2)NC(=O)NS(=O)(=O)N[C@@H](Cc2cc(F)cc(F)c2)C(=O)N(C)c2ccc(C)nc2)cn1", "note": "[Example 172]", "EC50": 0.58}
{"smiles": "COc1ccc(N(CCF)C(=O)[C@H](Cc2cc(F)cc(F)c2)NC(=O)Cn2c(=O)n(CC(=O)N[C@@H](Cc3cc(F)cc(F)c3)C(=O)N(CCF)c3ccc(OC)cc3)c3ccccc32)cc1", "note": "[Example 125]", "EC50": 0.34}
{"smiles": "COc1ccc(N(C)C(=O)[C@H](Cc2cc(F)cc(F)c2)NC(=O)c2cccc(C(=O)N[C@@H](Cc3cc(F)cc(F)c3)C(=O)N(C)c3ccc(OC)cc3)c2)cc1", "note": "[Example 49]", "EC50": 0.04}
{"smiles": "CN(C(=O)[C@H](Cc1cc(F)cc(F)c1)NC(=O)NS(=O)(=O)N[C@@H](Cc1cc(F)cc(F)c1)C(=O)N(C)c1ccc2sc(=O)n(C)c2c1)c1ccc2sc(=O)n(C)c2c1", "note": "[Example 237]", "EC50": 0.27}
{"smiles": "COc1ccc(N(C)C(=O)[C@H](Cc2ccccc2)NC(=O)c2ccc(C(=O)N[C@@H](Cc3ccccc3)C(=O)N(C)c3ccc(OC)cc3)cc2)cc1", "note": "[Example 25]", "EC50": 1.13}
{"smiles": "Cc1ccc(N(C)C(=O)[C@H](Cc2cc(F)cc(F)c2)NC(=O)c2ccc(F)c(C(=O)N[C@@H](Cc3cc(F)cc(F)c3)C(=O)N(C)c3ccc(C)nc3)c2)cn1", "note": "[Example 184]", "EC50": 0.19}
{"smiles": "COc1ccc(N(C)C(=O)[C@H](Cc2ccccc2)NC(=O)CC(C)(C)CC(=O)N[C@@H](Cc2ccccc2)C(=O)N(C)c2ccc(OC)cc2)cc1", "note": "[Example 77]", "EC50": 3.98}
{"smiles": "COc1ccc(N(C)C(=O)[C@H](Cc2ccccc2)NC(=O)NS(=O)(=O)N[C@@H](Cc2cc(F)cc(F)c2)C(=O)N(C)c2ccc(OC)cc2)cc1", "note": "[Example 44]", "EC50": 0.02}
{"smiles": "CN(C(=O)[C@H](Cc1ccccc1)NC(=O)NS(=O)(=O)N[C@@H](Cc1ccccc1)C(=O)N(C)c1ccc2scnc2c1)c1ccc2scnc2c1", "note": "[Example 13]", "EC50": 0.08}
{"smiles": "COc1ccc(N(C)C(=O)[C@H](Cc2ccccc2)NC(=O)NS(=O)(=O)N[C@@H](Cc2ccccc2)C(=O)N2CCCC2)cc1", "note": "[Example 8]", "EC50": 2.04}
{"smiles": "COc1ccc(N(C)C(=O)[C@H](Cc2ccccc2)NC(=O)[C@H](Cc2ccccc2)NC(=O)N[C@@H](Cc2ccccc2)C(=O)N[C@@H](Cc2ccccc2)C(=O)N(C)c2ccc(OC)cc2)cc1", "note": "[Example 62]", "EC50": 0.49}
{"smiles": "COc1ccc(N(C)C(=O)[C@H](Cc2cc(F)cc(F)c2)NC(=O)Cn2c(=O)n(CC(=O)N[C@@H](Cc3cc(F)cc(F)c3)C(=O)N(C)c3ccc(OC)cc3)c3cc(Cl)ccc32)cc1", "note": "[Example 72]", "EC50": 0.04}
{"smiles": "COc1ccc(N(C)C(=O)[C@H](Cc2ccccc2)NC(=O)/C=C/C(=O)N[C@@H](Cc2ccccc2)C(=O)N(C)c2ccc(OC)cc2)cc1", "note": "[Example 31]", "EC50": 0.78}
{"smiles": "C=CCN(C(=O)[C@H](Cc1cc(F)cc(F)c1)NC(=O)NS(=O)(=O)N[C@@H](Cc1cc(F)cc(F)c1)C(=O)N(CC=C)c1ccc2scnc2c1)c1ccc2scnc2c1", "note": "[Example 140]", "EC50": 0.1}
{"smiles": "CN(C(=O)[C@H](Cc1cc(F)cc(F)c1)NC(=O)NS(=O)(=O)N[C@@H](Cc1cc(F)cc(F)c1)C(=O)N(C)c1ccc(C(C)(C)C)cc1)c1ccc(C(C)(C)C)cc1", "note": "[Example 168]", "EC50": 0.15}
{"smiles": "COc1ccc(N(C)C(=O)[C@H](Cc2ccccc2)NC(=O)/C=C\\C(=O)N[C@@H](Cc2ccccc2)C(=O)N(C)c2ccc(OC)cc2)cc1", "note": "[Example 80]", "EC50": 0.16}
{"test_system": "not listed separately", "experiment": "Compound cytotoxicity, XTT-based colorimetric assay", "format": "cell-based", "conditions": "human, uninfected MT2 cells, day 4, XTT", "method_in_brief": "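Run under the antiviral-assay protocol but without virus. Viability was read on day 4 and CC50 values were derived from the readout.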", "units": {"CC50 at 4 days": "µM"}}
{"smiles": "COc1ccc(N(C)C(=O)[C@H](Cc2ccccc2)NC(=O)c2cc(C(=O)N[C@@H](Cc3ccccc3)C(=O)N(C)c3ccc(OC)cc3)[nH]n2)cc1", "note": "[Example 57]", "CC50 at 4 days": 3.5}
{"smiles": "COc1ccc(N(C)C(=O)[C@H](Cc2ccccc2)NC(=O)[C@@H]2CC[C@H](C(=O)N[C@@H](Cc3ccccc3)C(=O)N(C)c3ccc(OC)cc3)C2)cc1", "note": "[Example 52]", "CC50 at 4 days": 22.6}
{"smiles": "C=CCN(C(=O)[C@H](Cc1cc(F)cc(F)c1)NC(=O)NS(=O)(=O)N[C@@H](Cc1cc(F)cc(F)c1)C(=O)N(CC=C)c1ccc(OC)cc1)c1ccc(OC)cc1", "note": "[Example 120]", "CC50 at 4 days": 23.3}
{"smiles": "CN(C(=O)[C@H](Cc1cc(F)cc(F)c1)NC(=O)NS(=O)(=O)N[C@@H](Cc1cc(F)cc(F)c1)C(=O)N(C)c1ccccc1)c1ccccc1", "note": "[Example 86]", "CC50 at 4 days": 24.5}
{"smiles": "CN(C(=O)[C@H](Cc1cc(F)cc(F)c1)NC(=O)NS(=O)(=O)N[C@@H](Cc1cc(F)cc(F)c1)C(=O)N(C)c1cnc2scnc2c1)c1cnc2scnc2c1", "note": "[Example 226]", "CC50 at 4 days": "≥ 100"}
{"smiles": "Cc1ccc(N(C)C(=O)[C@H](Cc2cc(F)cc(F)c2)NC(=O)NS(=O)(=O)N[C@@H](Cc2cc(F)cc(F)c2)C(=O)N(C)c2ccc(C)nc2)cn1", "note": "[Example 172]", "CC50 at 4 days": "≥ 100"}
{"smiles": "COc1ccc(N(CCF)C(=O)[C@H](Cc2cc(F)cc(F)c2)NC(=O)Cn2c(=O)n(CC(=O)N[C@@H](Cc3cc(F)cc(F)c3)C(=O)N(CCF)c3ccc(OC)cc3)c3ccccc32)cc1", "note": "[Example 125]", "CC50 at 4 days": "≥ 100"}
{"smiles": "COc1ccc(N(C)C(=O)[C@H](Cc2cc(F)cc(F)c2)NC(=O)c2cccc(C(=O)N[C@@H](Cc3cc(F)cc(F)c3)C(=O)N(C)c3ccc(OC)cc3)c2)cc1", "note": "[Example 49]", "CC50 at 4 days": 10.8}
{"smiles": "CN(C(=O)[C@H](Cc1cc(F)cc(F)c1)NC(=O)NS(=O)(=O)N[C@@H](Cc1cc(F)cc(F)c1)C(=O)N(C)c1ccc2sc(=O)n(C)c2c1)c1ccc2sc(=O)n(C)c2c1", "note": "[Example 237]", "CC50 at 4 days": 71.9}
{"smiles": "COc1ccc(N(C)C(=O)[C@H](Cc2ccccc2)NC(=O)c2ccc(C(=O)N[C@@H](Cc3ccccc3)C(=O)N(C)c3ccc(OC)cc3)cc2)cc1", "note": "[Example 25]", "CC50 at 4 days": 3.7}
{"smiles": "Cc1ccc(N(C)C(=O)[C@H](Cc2cc(F)cc(F)c2)NC(=O)c2ccc(F)c(C(=O)N[C@@H](Cc3cc(F)cc(F)c3)C(=O)N(C)c3ccc(C)nc3)c2)cn1", "note": "[Example 184]", "CC50 at 4 days": 11.1}
{"smiles": "COc1ccc(N(C)C(=O)[C@H](Cc2ccccc2)NC(=O)CC(C)(C)CC(=O)N[C@@H](Cc2ccccc2)C(=O)N(C)c2ccc(OC)cc2)cc1", "note": "[Example 77]", "CC50 at 4 days": 9.6}
{"smiles": "COc1ccc(N(C)C(=O)[C@H](Cc2ccccc2)NC(=O)NS(=O)(=O)N[C@@H](Cc2cc(F)cc(F)c2)C(=O)N(C)c2ccc(OC)cc2)cc1", "note": "[Example 44]", "CC50 at 4 days": 67}
{"smiles": "CN(C(=O)[C@H](Cc1ccccc1)NC(=O)NS(=O)(=O)N[C@@H](Cc1ccccc1)C(=O)N(C)c1ccc2scnc2c1)c1ccc2scnc2c1", "note": "[Example 13]", "CC50 at 4 days": "≥ 100"}
{"smiles": "COc1ccc(N(C)C(=O)[C@H](Cc2ccccc2)NC(=O)NS(=O)(=O)N[C@@H](Cc2ccccc2)C(=O)N2CCCC2)cc1", "note": "[Example 8]", "CC50 at 4 days": "≥ 33.3"}
{"smiles": "COc1ccc(N(C)C(=O)[C@H](Cc2ccccc2)NC(=O)[C@H](Cc2ccccc2)NC(=O)N[C@@H](Cc2ccccc2)C(=O)N[C@@H](Cc2ccccc2)C(=O)N(C)c2ccc(OC)cc2)cc1", "note": "[Example 62]", "CC50 at 4 days": "≥ 100"}
{"smiles": "COc1ccc(N(C)C(=O)[C@H](Cc2cc(F)cc(F)c2)NC(=O)Cn2c(=O)n(CC(=O)N[C@@H](Cc3cc(F)cc(F)c3)C(=O)N(C)c3ccc(OC)cc3)c3cc(Cl)ccc32)cc1", "note": "[Example 72]", "CC50 at 4 days": 4.4}
{"smiles": "COc1ccc(N(C)C(=O)[C@H](Cc2ccccc2)NC(=O)/C=C/C(=O)N[C@@H](Cc2ccccc2)C(=O)N(C)c2ccc(OC)cc2)cc1", "note": "[Example 31]", "CC50 at 4 days": 3.5}
{"smiles": "C=CCN(C(=O)[C@H](Cc1cc(F)cc(F)c1)NC(=O)NS(=O)(=O)N[C@@H](Cc1cc(F)cc(F)c1)C(=O)N(CC=C)c1ccc2scnc2c1)c1ccc2scnc2c1", "note": "[Example 140]", "CC50 at 4 days": 32.7}
{"smiles": "CN(C(=O)[C@H](Cc1cc(F)cc(F)c1)NC(=O)NS(=O)(=O)N[C@@H](Cc1cc(F)cc(F)c1)C(=O)N(C)c1ccc(C(C)(C)C)cc1)c1ccc(C(C)(C)C)cc1", "note": "[Example 168]", "CC50 at 4 days": 16.2}
{"smiles": "COc1ccc(N(C)C(=O)[C@H](Cc2ccccc2)NC(=O)/C=C\\C(=O)N[C@@H](Cc2ccccc2)C(=O)N(C)c2ccc(OC)cc2)cc1", "note": "[Example 80]", "CC50 at 4 days": 12.8}
